{"source": "patent US9983218B2", "about": "“Indole and indoline derivatives and methods of use thereof” (AbbVie Inc., priority 2008, dated 2018)", "system": "SK-N-SH human neuroblastoma cells", "experiment": "Serum deprivation/JC-1 mitochondrial membrane potential (MMP) assay", "type": "cell-based", "conditions": "Homo sapiens; for Emax: SK-N-SH, percent maximal intensity in JC-1 ratio normalized to 10 μM dimebolin, read-out: JC-1 max %; for EC50: SK-N-SH cells, serum deprivation ~18 hours, JC-1 ratio normalized to peak value for 10 μM dimebolin, single curve fit to mean data of n=2-3, read-out: EC50", "description": "SK-N-SH human neuroblastoma cells obtained from American Type Culture Collection (Rockville, Md.) were maintained in the log phase of growth in Minimal Essential Media (MEM), 10% heat inactivated fetal calf serum and 100 units/mL antibiotic-antimycotic (AA). Cells were cultured and maintained in a humidified incubator at 37° C. under 5% CO2 and 95% air. Cells were trypsinized (0.25%) and subcultured every 3 days and used from 15-18 passages. All cell culture supplies were obtained from Invitrogen (Carlsbad, Calif.).\nSK-N-SH cells were plated 2-3 days in advance at a concentration of 50,000 cells/well onto collagen coated black-walled 96 well plates (Becton-Dickinson, Bedford, Mass.) in a total volume of 200 μL. On day of experimental treatment, the media containing serum was aspirated from each well and rinsed once with MEM/1% AA without serum. The cells then were incubated overnight in 100 μL of MEM/1% AA (no serum) with and without dimebolin or novel chemical entities overnight for ˜18 hours. The following day, JC-1 dye (5,5′,6,6′-tetrachloro-1,1′,3,3′-tetraethylbenzimidazolcarbocyanide) was diluted 1:10 into MEM media according to the JC-1 Mitochondrial Membrane Potential Assay Kit: (Cayman Chemical Company, Ann Arbor, Mich.) and then 10 μL of the JC-1 dye solution was added to each well. The plates were centrifuged for 5 minutes at 400×g at room temperature followed by 35 minute incubation at 37° C. The plates were washed twice with 200[…] μL of provided Assay Buffer followed an addition of 100 μL of Assay Buffer to each well. The plates were read with an excitation and emission of 560 nm and 595 nM for red fluorescence and with an excitation and emission of 485 nm and 535 nM for green fluorescence to determine the final JC-1 value taking the red to green fluorescence ratio. This assay is based on change in mitochondrial membrane potential (MMP) using this lipophilic cationic dye, JC-1, by monitoring the changes in the ratio of red to green fluorescence as the MMP depolarizes. This change in MMP reflects the health of the cell with healthy, viable cells have a high JC-1 ratio and high MMP whereas apoptotic, unhealthy cells have a low JC-1 ratio or low MMP.\nFor the ability of compounds to reverse the stress due to serum deprivation and increase the JC-1 ratio, the percent maximal intensity in JC-1 ratio was normalized to that induced by the peak value for 10 μM dimebolin and plotted against the compound concentration to calculate EC50 values and to control for plate-to-plate variability. Concentration-response data were analyzed using GraphPad Prism (San Diego, Calif.); the EC50 values were derived from a single curve fit to the mean data of n=2-3, in duplicates.\nAll compounds were dissolved in dimethyl sulfoxide at 10 mM stock solutions and tested at a concentration that the dimethyl sulfoxide levels never exceeded 1%."}
{"smiles": "Clc1ccc(CCn2c3c(c4cc(Br)ccc42)CN2CCC3CC2)cc1", "note": "[Example 174, 9-bromo-6-[2-(4-chlorophenyl)ethyl]-3,4,5,6-tetrahydro-1H-2,5-ethanoazepino[4,3-b]indole]", "values": [{"measurement": "Emax", "value": 105, "unit": "%"}, {"measurement": "EC50", "value": 5.48, "unit": "µM"}]}
{"smiles": "c1cc(N2CCOCC2)nc(-n2c3c(c4ccccc42)CN2CCC3CC2)c1", "note": "[Example 265, 6-[6-(morpholin-4-yl)pyridin-2-yl]-3,4,5,6-tetrahydro-1H-2,5-ethanoazepino[4,3-b]indole]", "values": [{"measurement": "Emax", "value": 264, "unit": "%"}, {"measurement": "EC50", "value": 1.84, "unit": "µM"}]}
{"smiles": "Cc1ccc(CCn2c3c(c4cc(-c5cn[nH]c5)ccc42)C2CCC(C3)N2C)cn1", "note": "(stereo not shown) [Example 112, 11-methyl-5-[2-(6-methylpyridin-3-yl)ethyl]-2-(1H-pyrazol-4-yl)-5,6,7,8,9,10-hexahydro-7,10-epiminocyclohepta[b]indole]", "values": [{"measurement": "Emax", "value": 101, "unit": "%"}, {"measurement": "EC50", "value": 3.43, "unit": "µM"}]}
{"smiles": "Fc1ccc2c(c1)c1c(n2Cc2coc(-c3ccccc3)n2)C2CCN(CC2)C1", "note": "[Example 173, 9-fluoro-6-[(2-phenyl-1,3-oxazol-4-yl)methyl]-3,4,5,6-tetrahydro-1H-2,5-ethanoazepino[4,3-b]indole]", "values": [{"measurement": "Emax", "value": 120, "unit": "%"}, {"measurement": "EC50", "value": 6.15, "unit": "µM"}]}
{"smiles": "c1cnc2cc(-n3c4c(c5ccccc53)CN3CCC4CC3)ccc2c1", "note": "[Example 234, 6-quinolin-7-yl-3,4,5,6-tetrahydro-1H-2,5-ethanoazepino[4,3-b]indole]", "values": [{"measurement": "Emax", "value": 281, "unit": "%"}, {"measurement": "EC50", "value": 1.27, "unit": "µM"}]}
{"smiles": "Cc1ccc(/C=C/n2c3c(c4cc(F)ccc42)CN2CCC3CC2)cn1", "note": "[Example 162, 9-fluoro-6-[(E)-2-(6-methylpyridin-3-yl)vinyl]-3,4,5,6-tetrahydro-1H-2,5-ethanoazepino[4,3-b]indole]", "values": [{"measurement": "Emax", "value": 205, "unit": "%"}, {"measurement": "EC50", "value": 17, "unit": "µM"}]}
{"smiles": "Cc1ccc2c(c1)c1c(n2-c2ccc(-c3ccc(I)cc3)nn2)CC2CCC1N2C", "note": "(stereo not shown) [Example 3, 5-[6-(4-iodophenyl)pyridazin-3-yl]-2,11-dimethyl-5,6,7,8,9,10-hexahydro-7,10-epiminocyclohepta[b]indole]", "values": [{"measurement": "Emax", "value": 191, "unit": "%"}, {"measurement": "EC50", "value": 5.11, "unit": "µM"}]}
{"smiles": "O=c1ccnc2ccc(-n3c4c(c5ccccc53)[C@H]3CC[C@@H](C4)N3)cn12", "note": "(single isomer, unassigned) [Example 283]", "values": [{"measurement": "Emax", "value": 170, "unit": "%"}, {"measurement": "EC50", "value": 6.02, "unit": "µM"}]}
{"smiles": "Cc1cc(Cn2c3c(c4cc(F)ccc42)CN2CCC3CC2)on1", "note": "[Example 252, 9-fluoro-6-[(3-methyl-1,2-oxazol-5-yl)methyl]-3,4,5,6-tetrahydro-1H-2,5-ethanoazepino[4,3-b]indole]", "values": [{"measurement": "Emax", "value": 109, "unit": "%"}, {"measurement": "EC50", "value": 6.2, "unit": "µM"}]}
{"smiles": "Cc1ccc2c(c1)c1c(n2/C=C/c2ccc(C)nc2)CC2CCCC1N2C", "note": "(stereo not shown) [Example 122, 2,12-dimethyl-5-[(E)-2-(6-methylpyridin-3-yl)vinyl]-6,7,8,9,10,11-hexahydro-5H-7,11-epiminocycloocta[b]indole]", "values": [{"measurement": "Emax", "value": 141, "unit": "%"}, {"measurement": "EC50", "value": 5.29, "unit": "µM"}]}
{"smiles": "CN1[C@H]2CC[C@@H]1c1c(n(-c3ccc4ncccc4c3)c3ccccc13)C2", "note": "[Example 281, (7S,10R)-11-methyl-5-(quinolin-6-yl)-5,6,7,8,9,10-hexahydro-7,10-epiminocyclohepta[b]indole]", "values": [{"measurement": "Emax", "value": 228, "unit": "%"}, {"measurement": "EC50", "value": 1.74, "unit": "µM"}]}
{"smiles": "c1ccc2c(c1)c1c(n2-c2ccc3cnccc3c2)C2CCN(CC2)C1", "note": "[Example 271, 6-(isoquinolin-6-yl)-3,4,5,6-tetrahydro-1H-2,5-ethanoazepino[4,3-b]indole]", "values": [{"measurement": "Emax", "value": 264, "unit": "%"}, {"measurement": "EC50", "value": 3.17, "unit": "µM"}]}
{"smiles": "Fc1ccc2c(c1)c1c(n2Cc2ccc(Cl)nc2)CC2CNC1C2", "note": "(stereo not shown) [Example 285, 6-[(6-chloropyridin-3-yl)methyl]-9-fluoro-1,2,3,4,5,6-hexahydro-1,4-methanoazepino[4,3-b]indole]", "values": [{"measurement": "Emax", "value": 149, "unit": "%"}, {"measurement": "EC50", "value": 9.41, "unit": "µM"}]}
{"smiles": "Fc1ccc2c(c1)c1c(n2Cc2ccc(Cl)nc2)C2CCN(CC2)C1", "note": "[Example 164, 6-[(6-chloropyridin-3-yl)methyl]-9-fluoro-3,4,5,6-tetrahydro-1H-2,5-ethanoazepino[4,3-b]indole]", "values": [{"measurement": "Emax", "value": 197, "unit": "%"}, {"measurement": "EC50", "value": 4.95, "unit": "µM"}]}
{"smiles": "Fc1ccc2c(c1)c1c(n2Cc2cccc3cccnc23)C2CCN(CC2)C1", "note": "[Example 251, 9-fluoro-6-(quinolin-8-ylmethyl)-3,4,5,6-tetrahydro-1H-2,5-ethanoazepino[4,3-b]indole]", "values": [{"measurement": "Emax", "value": 193, "unit": "%"}, {"measurement": "EC50", "value": 4.39, "unit": "µM"}]}
{"smiles": "Cc1ccc2c(c1)c1c(n2CCc2ccc(C)nn2)C[C@H]2CC[C@@H]1N2C", "note": "[Example 33, (7R,10S)-2,11-dimethyl-5-[2-(6-methylpyridazin-3-yl)ethyl]-5,6,7,8,9,10-hexahydro-7,10-epiminocyclohepta[b]indole]", "values": [{"measurement": "Emax", "value": 97, "unit": "%"}, {"measurement": "EC50", "value": 5.81, "unit": "µM"}]}
{"smiles": "Cc1ccc2c(c1)c1c(n2CCc2ccccc2C)C[C@H]2CCC[C@@H]1N2", "note": "(single isomer, unassigned) [Example 127]", "values": [{"measurement": "Emax", "value": 151, "unit": "%"}, {"measurement": "EC50", "value": 3.69, "unit": "µM"}]}
{"smiles": "Cc1ccc2c(c1)c1c(n2CCc2ccc(Cl)cc2)C[C@H]2CC[C@@H]1N2C", "note": "[Example 44, (7R,10S)-5-[2-(4-chlorophenyl)ethyl]-2,11-dimethyl-5,6,7,8,9,10-hexahydro-7,10-epiminocyclohepta[b]indole]", "values": [{"measurement": "Emax", "value": 291, "unit": "%"}, {"measurement": "EC50", "value": 3.31, "unit": "µM"}]}
{"smiles": "Cc1ccc2c(c1)[C@@H]1[C@@H](C3CCN1CC3)N2CCc1ccc(C)nc1", "note": "(relative stereo) [Example 213, (4aR*,9bR*)-8-methyl-5-[2-(6-methylpyridin-3-yl)ethyl]-2,3,4,4a,5,9b-hexahydro-1,4-ethanopyrido[3,2-b]indole]", "values": [{"measurement": "Emax", "value": 177, "unit": "%"}, {"measurement": "EC50", "value": 5.43, "unit": "µM"}]}
{"smiles": "CN1C2CCC1c1c(n(CCc3ccc(Cl)cc3)c3ccc(C(F)(F)F)cc13)C2", "note": "(stereo not shown) [Example 98, 5-[2-(4-chlorophenyl)ethyl]-11-methyl-2-(trifluoromethyl)-5,6,7,8,9,10-hexahydro-7,10-epiminocyclohepta[b]indole]", "values": [{"measurement": "Emax", "value": 176, "unit": "%"}, {"measurement": "EC50", "value": 7.26, "unit": "µM"}]}
{"smiles": "O=c1cccnn1-c1ccc(-n2c3c(c4ccccc42)CN2CCC3CC2)cc1", "note": "[Example 287, 2-[4-(1,3,4,5-tetrahydro-6H-2,5-ethanoazepino[4,3-b]indol-6-yl)phenyl]pyridazin-3(2H)-one]", "values": [{"measurement": "Emax", "value": 209, "unit": "%"}, {"measurement": "EC50", "value": 1.53, "unit": "µM"}]}
{"smiles": "Fc1ccc2c(c1)c1c(n2-c2cccc(-n3cccn3)n2)C2CCN(CC2)C1", "note": "[Example 225, 9-fluoro-6-[6-(1H-pyrazol-1-yl)pyridin-2-yl]-3,4,5,6-tetrahydro-1H-2,5-ethanoazepino[4,3-b]indole]", "values": [{"measurement": "Emax", "value": 209, "unit": "%"}, {"measurement": "EC50", "value": 2.74, "unit": "µM"}]}
{"smiles": "CN1C2CCC1c1c(n(CCc3ccc(Cl)cc3)c3ccc(Br)cc13)C2", "note": "(stereo not shown) [Example 87, 2-bromo-5-[2-(4-chlorophenyl)ethyl]-11-methyl-5,6,7,8,9,10-hexahydro-7,10-epiminocyclohepta[b]indole]", "values": [{"measurement": "Emax", "value": 139, "unit": "%"}, {"measurement": "EC50", "value": 3.33, "unit": "µM"}]}
{"smiles": "c1ccc2c(c1)c1c(n2-c2ccc3ncncc3c2)C2CCN(CC2)C1", "note": "[Example 269, 6-(quinazolin-6-yl)-3,4,5,6-tetrahydro-1H-2,5-ethanoazepino[4,3-b]indole]", "values": [{"measurement": "Emax", "value": 204, "unit": "%"}, {"measurement": "EC50", "value": 0.745, "unit": "µM"}]}
{"smiles": "Cc1ccc2c(c1)c1c(n2CCc2ccc(C)nc2)CC2CCC1N2CC(F)(F)F", "note": "(stereo not shown) [Example 14, 2-methyl-5-[2-(6-methylpyridin-3-yl)ethyl]-11-(2,2,2-trifluoroethyl)-5,6,7,8,9,10-hexahydro-7,10-epiminocyclohepta[b]indole]", "values": [{"measurement": "Emax", "value": 110, "unit": "%"}, {"measurement": "EC50", "value": 4.79, "unit": "µM"}]}
{"smiles": "Cc1ccc2c(c1)c1c(n2/C=C/c2ccc(C)nc2)C[C@@H]2CC[C@H]1N2C", "note": "[Example 23, (7S,10R)-2,11-dimethyl-5-[(E)-2-(6-methylpyridin-3-yl)vinyl]-5,6,7,8,9,10-hexahydro-7,10-epiminocyclohepta[b]indole]", "values": [{"measurement": "Emax", "value": 332, "unit": "%"}, {"measurement": "EC50", "value": 3.32, "unit": "µM"}]}
{"smiles": "c1cc(-n2cccn2)nc(-n2c3c(c4ccccc42)CN2CCC3CC2)c1", "note": "[Example 236, 6-[6-(1H-pyrazol-1-yl)pyridin-2-yl]-3,4,5,6-tetrahydro-1H-2,5-ethanoazepino[4,3-b]indole]", "values": [{"measurement": "Emax", "value": 268, "unit": "%"}, {"measurement": "EC50", "value": 1.74, "unit": "µM"}]}
{"smiles": "Cc1ccc2c(c1)c1c(n2/C=C/c2ccc(C)nc2)C2CCN(CC2)C1", "note": "[Example 146, 9-methyl-6-[(E)-2-(6-methylpyridin-3-yl)vinyl]-3,4,5,6-tetrahydro-1H-2,5-ethanoazepino[4,3-b]indole]", "values": [{"measurement": "Emax", "value": 264, "unit": "%"}, {"measurement": "EC50", "value": 2.84, "unit": "µM"}]}
{"smiles": "CN1[C@@H]2CC[C@H]1c1c(n(-c3ccc4ncccc4c3)c3ccccc13)C2", "note": "[Example 286, (7R,10S)-11-methyl-5-(quinolin-6-yl)-5,6,7,8,9,10-hexahydro-7,10-epiminocyclohepta[b]indole]", "values": [{"measurement": "Emax", "value": 239, "unit": "%"}, {"measurement": "EC50", "value": 4.41, "unit": "µM"}]}
